According to ChEMBL document CHEMBL1201862, “PubChem BioAssay data set” (2004):
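Assay format: 96-well plates, 48-hour exposure. Here, GI50 denotes the concentration required for 50% inhibition of growth.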 Calls of active or inactive are those of the source. Cut-off read from the data, not from the text of the source: active = GI50 up to about 1.1 µM and inactive = higher.

Key:
Experiment in all cases: NCI-60 cell line screen, 48 h
SR = system: SR
786-0 = system: 786-0
OVCAR-3 = system: OVCAR-3
SF-539 = system: SF-539
SNB-78 = system: SNB-78
CAKI-1 = system: CAKI-1
SK-MEL-5 = system: SK-MEL-5
U-251 = system: U-251
UO-31 = system: UO-31
HCC 2998 = system: HCC 2998
OVCAR-8 = system: OVCAR-8
SNB-75 = system: SNB-75
CCRF-CEM = system: CCRF-CEM
RXF 393 = system: RXF 393
NCI-H226 = system: NCI-H226
SN12C = system: SN12C
HT-29 = system: HT-29
A498 = system: A498
HCT-15 = system: HCT-15
MDA-N = system: MDA-N

| SMILES | GI50 (SR) | GI50 (786-0) | GI50 (OVCAR-3) | GI50 (SF-539) | GI50 (SNB-78) | GI50 (CAKI-1) | GI50 (SK-MEL-5) | GI50 (U-251) | GI50 (UO-31) | GI50 (HCC 2998) | GI50 (OVCAR-8) | GI50 (SNB-75) | GI50 (CCRF-CEM) | GI50 (RXF 393) | GI50 (NCI-H226) | GI50 (SN12C) | GI50 (HT-29) | GI50 (A498) | GI50 (HCT-15) [µM] | GI50 (MDA-N) |
| --- | --- | --- | --- | --- | --- | --- | --- | --- | --- | --- | --- | --- | --- | --- | --- | --- | --- | --- | --- | --- |
| O=C(Nc1ccccc1-c1nn(CO)c(=S)n(CO)c1=O)C(F)(F)F | > 100 µM (inactive) | > 100 µM (inactive) | > 100 µM (inactive) | > 100 µM (inactive) | > 100 µM (inactive) | > 100 µM (inactive) | 31.8 µM (inactive) | > 100 µM (inactive) | > 100 µM (inactive) | > 100 µM (inactive) | > 100 µM (inactive) | 92.3 µM (inactive) | > 100 µM (inactive) | > 100 µM (inactive) | > 100 µM (inactive) | > 100 µM (inactive) | > 100 µM (inactive) | – | – | – |
| COc1cc(CC(C(=O)O)C(=O)O)c(OC)cc1CC(C(=O)O)C(=O)O | > 100 µM (inactive) | > 100 µM (inactive) | > 100 µM (inactive) | > 100 µM (inactive) | > 100 µM (inactive) | > 100 µM (inactive) | > 100 µM (inactive) | > 100 µM (inactive) | > 100 µM (inactive) | – | > 100 µM (inactive) | > 100 µM (inactive) | > 100 µM (inactive) | > 100 µM (inactive) | > 100 µM (inactive) | > 100 µM (inactive) | > 100 µM (inactive) | > 100 µM (inactive) | > 100 | – |
| O=C(NCP(=O)(c1ccccc1)c1ccccc1)OCc1ccccc1 | > 100 µM (inactive) | 37.2 µM (inactive) | 54.3 µM (inactive) | > 100 µM (inactive) | – | > 100 µM (inactive) | > 100 µM (inactive) | 84.5 µM (inactive) | > 100 µM (inactive) | > 100 µM (inactive) | > 100 µM (inactive) | 6.65 µM (inactive) | > 100 µM (inactive) | 82.6 µM (inactive) | > 100 µM (inactive) | > 100 µM (inactive) | > 100 µM (inactive) | > 100 µM (inactive) | > 100 | > 100 µM (inactive) |
| O=C1OC(c2ccccc2)=N/C1=C/C=C/c1ccco1 | > 100 µM (inactive) | > 100 µM (inactive) | > 100 µM (inactive) | > 100 µM (inactive) | > 100 µM (inactive) | > 100 µM (inactive) | > 100 µM (inactive) | > 100 µM (inactive) | > 100 µM (inactive) | > 100 µM (inactive) | > 100 µM (inactive) | – | > 100 µM (inactive) | > 100 µM (inactive) | – | > 100 µM (inactive) | > 100 µM (inactive) | – | > 100 | – |
| COc1ccc(/C=C2/CCCC/C2=N/O)cc1 | – | > 100 µM (inactive) | > 100 µM (inactive) | > 100 µM (inactive) | 94.2 µM (inactive) | – | – | > 100 µM (inactive) | > 100 µM (inactive) | > 100 µM (inactive) | > 100 µM (inactive) | 31.6 µM (inactive) | 51.6 µM (inactive) | 40.8 µM (inactive) | – | 75.7 µM (inactive) | > 100 µM (inactive) | 24.2 µM (inactive) | > 100 | – |
| CCOC(=O)C(=O)Nc1ccc(Cl)c(C(F)(F)F)c1 | > 100 µM (inactive) | > 100 µM (inactive) | > 100 µM (inactive) | > 100 µM (inactive) | > 100 µM (inactive) | > 100 µM (inactive) | > 100 µM (inactive) | > 100 µM (inactive) | > 100 µM (inactive) | > 100 µM (inactive) | > 100 µM (inactive) | > 100 µM (inactive) | > 100 µM (inactive) | > 100 µM (inactive) | > 100 µM (inactive) | > 100 µM (inactive) | > 100 µM (inactive) | – | > 100 | – |
| CCCCN(C)CC(C(C)=O)C(c1ccccc1)c1c(O)c2ccccc2oc1=O (stereo not drawn) | > 100 µM (inactive) | > 100 µM (inactive) | > 100 µM (inactive) | > 100 µM (inactive) | > 100 µM (inactive) | > 100 µM (inactive) | > 100 µM (inactive) | > 100 µM (inactive) | > 100 µM (inactive) | – | > 100 µM (inactive) | 65.2 µM (inactive) | > 100 µM (inactive) | > 100 µM (inactive) | > 100 µM (inactive) | > 100 µM (inactive) | > 100 µM (inactive) | > 100 µM (inactive) | > 100 | – |
| COC/C=C\COC | – | > 100 µM (inactive) | > 100 µM (inactive) | – | > 100 µM (inactive) | > 100 µM (inactive) | > 100 µM (inactive) | > 100 µM (inactive) | > 100 µM (inactive) | > 100 µM (inactive) | > 100 µM (inactive) | > 100 µM (inactive) | > 100 µM (inactive) | > 100 µM (inactive) | > 100 µM (inactive) | > 100 µM (inactive) | > 100 µM (inactive) | – | > 100 | – |
| CCCCCCCCCc1cc(=O)c2ccc(O)cc2o1 | 24.3 µM (inactive) | 39.8 µM (inactive) | 9.38 µM (inactive) | 44.4 µM (inactive) | 38.9 µM (inactive) | 4.66 µM (inactive) | 43.5 µM (inactive) | 33.8 µM (inactive) | 8.85 µM (inactive) | – | 27.1 µM (inactive) | 17.2 µM (inactive) | 16.9 µM (inactive) | 31.4 µM (inactive) | 12.6 µM (inactive) | > 100 µM (inactive) | > 100 µM (inactive) | – | – | – |
| c1ccc2c(c1)C1CCCCCC21N1CCOCC1 (stereo not drawn) | – | > 100 µM (inactive) | 20.6 µM (inactive) | > 100 µM (inactive) | > 100 µM (inactive) | > 100 µM (inactive) | 44.2 µM (inactive) | 78.5 µM (inactive) | > 100 µM (inactive) | > 100 µM (inactive) | > 100 µM (inactive) | 34.8 µM (inactive) | 97.7 µM (inactive) | > 100 µM (inactive) | 92.9 µM (inactive) | > 100 µM (inactive) | 86.3 µM (inactive) | > 100 µM (inactive) | 52 | – |
| COc1cc(C2c3cc4c(cc3[C@@H](OCCN(C)C)C3COC(=O)[C@H]23)OCO4)cc(OC)c1O (stereo partly drawn) | < 0.01 µM (active) | 0.139 µM (active) | 1.76 µM (inactive) | 0.164 µM (active) | 5.13 µM (inactive) | 0.14 µM (active) | 0.183 µM (active) | 0.0849 µM (active) | 0.519 µM (active) | – | 0.583 µM (active) | 0.769 µM (active) | 0.0419 µM (active) | 0.396 µM (active) | 0.0394 µM (active) | 0.151 µM (active) | 0.902 µM (active) | 0.167 µM (active) | 0.971 | – |
| Cc1cc[n+]2c(c1)-c1cc(C)cc[n+]1CC2 | > 100 µM (inactive) | > 100 µM (inactive) | 45.2 µM (inactive) | > 100 µM (inactive) | – | > 100 µM (inactive) | > 100 µM (inactive) | > 100 µM (inactive) | > 100 µM (inactive) | > 100 µM (inactive) | > 66.5 µM (inactive) | > 100 µM (inactive) | > 22.7 µM (inactive) | > 100 µM (inactive) | > 100 µM (inactive) | 89.9 µM (inactive) | 34.7 µM (inactive) | > 100 µM (inactive) | > 100 | > 100 µM (inactive) |
